One test has as its target T1, MMP-3 (Stromelysin-1) (Homo sapiens, UniProt P08254).
T1 construct: The active MMP-3 was obtained by treatment of proMMP-3 with trypsin; endogenous in cells; host or cells: human rheumatoid synovial fibroblasts stimulated with macrophage-conditioned medium; secreted proenzyme purified from culture medium
The test can be described thus: Determination of inhibition constant (Ki) for MMP-3, fluorogenic substrate. Type of test: biochemical. The note with it: pH 7.6. As to the method:
ProMMP-3 (EC3.4.24.17; Stromelysin-1) was purified from culture medium of human rheumatoid synovial fibroblasts stimulated with macrophage-conditioned medium according to Okada, Y. et al., J. Biol. Chem. 261, 14245-14255 (1986). The active MMP-3 was obtained by treatment of proMMP-3 with trypsin (5 μg/mL) at 37° C. for 30 minutes, followed by addition of soybean trypsin inhibitor (50 μg/mL). Aliquots of the activated MMP-3 were stored at −20° C.
The activated MMP-3 is assayed using a fluorogenic substrate, Mca-Pro-Leu-Gly-Leu-Dpa-Ala-Arg-NH2, Knight, C. G. et al., FEBS Lett. 296, 263-266 (1992), at 37° C. in an assay buffer containing 50 mM Tris, pH 7.6, 0.2 M sodium chloride, 50 mM calcium chloride, and 0.02% Brij-35. The increase in fluorescence due to cleavage of Gly-Leu peptide bond by MMP-3 was monitored with Perkin-Elmer LS50B Fluorimeter (λex 328 nm, λem 393 nm, excitation slit 2.5, emission slit 10). Substrate and inhibitor stock solutions were made in DMF and 0.1% HCl-DMF, respectively. For determination of Ki values for MMP-3 inhibitors, a series of intermediate inhibitor solutions were prepared in 0.1% HCl-DMF and 1 or 2 μL of the diluted inhibitor solution was mixed with 1 μL of 2 mM substrate solution in DMF in a quartz cuvette containing 2 mL of assay buffer. The enzyme (10 μL of 0.2 μM MMP-3 dilution in assay buffer) was added at the last to start the reaction. For routine measurement of a Ki value for a reversible, competitive inhibitor, the initial rates in the presence of at least four inhibitor concentrations (two concentrations above Ki and two concentrations below Ki) were measured using [S]=1 μM (<<Km) and [MMP-3]=1 nM. Under these conditions, the measured Ki, app is close to true Ki.
The Ki for a competitive inhibitor is calculated using: v0/vi=(1+[I]/Ki, app) and Ki=Ki, app/(1+[S]/Km), where v0 is the initial rate in the absence of inhibitor, vi is the initial rate in the presence of inhibitor at the concentration of [I], [S] is the substrate concentration, and Km is the Michaelis constant. If slow binding is observed (i.e. if the approach to the binding equilibrium is slow), the final steady-state rate rather than the initial rate is taken as vi.

The target in test [1] is T2, MMP-12 (macrophage metalloelastase) (Homo sapiens, UniProt P39900).
T2 construct: made in house
As to the kind of experiment: Determination of the inhibition constant (Ki) for MMP-12, fluorogenic substrate. Type of test: biochemical. The note with it: pH 7.6. The protocol:
MMP-12 (EC3.4.24.65) was cloned, expressed and purified according to Shapiro, S. D. et al., J Biol. Chem. 268, 23824-23829 (1993). […] Aliquots of MMP-12 were stored at −70° C.
The potency of inhibitors of MMP-12 was measured using either quartz cuvettes or microtiter plates. The activity of MMP-12 was measured using a fluorogenic substrate, Mca-Pro-Leu-Gly-Leu-Dpa-Ala-Arg-NH2 SEQ ID NO1, Knight, C. G. et al., FEBS Lett. 296,263-266 (1992), at 25° C. in an assay buffer containing 50 mM Tris, pH 7.6, 0.2 M sodium chloride, 50 mM calcium chloride, and 0.02% Brij-35. The increase in fluorescence due to cleavage of Gly-Leu peptide bond by MMP-12 was monitored with a Perkin-Elmer LS50B Fluorimeter (λex 328 nm, λem 393 nm, excitation slit 2.5, emission slit 10) for the cuvette assay and with a Molecular Devices Fmax fluorescence plate reader (λex 320 nm, λem 405 nm) for the microtiter plate assay. Substrate and inhibitor stock solutions were made in N,N-dimethylformamide (DMF) and 0.1% HCl-DMF, respectively.
Ki values were determined using the cuvette method by preparing a series of intermediate inhibitors solutions in 0.1% HCl-DMF and mixing the inhibitor with substrate (final concentration 2 μM) in a quartz cuvette containing 2 ml of assay buffer. MMP-12 was added to start the reaction at a concentration of 2 nM and progress curves were generated. For routine measurement of a Ki value for a reversible competitive inhibitor, the initial rates in the presence of at least four inhibitor concentrations (two concentrations above and two concentrations below the Ki) were measured [S]=2 μM (<<Km) and [MMP-12]=2 nM. Under these conditions, the measured Ki,app is close to the true Ki.
Ki values were determined using the microtiter plate method in a manner similar to that described for the cuvette method with some modifications. Four different inhibitor concentrations (50 μl in assay buffer) of each compound were added to separate wells of a microtiter plate and substrate was added (100 μl) to get a final concentration of […]. MMP-12 was added to a final concentration of 2 nM (50 μl) to start the reaction. Cleavage of substrate was recorded every 30 seconds for 30 minutes and progress curves were generated.
The Ki for a competitive inhibitor was calculated using: V0/Vi=(1+[I]/Ki,app) and Ki=Ki,app/(1+[S]/Km), where V0 is the initial rate in the absence of inhibitor, Vi is the initial rate in the presence of inhibitor at the concentration of [I], [S] is the substrate concentration, and Km is the Michaelis constant. If slow binding is observed (i.e. if the approach to the binding equilibrium is slow), the final steady-state rate rather than the initial rate is taken as Vi.

Where [2] appears, read: Table 1, Mca-Pro-Leu-Gly-Leu-Dpa-Ala-Arg-NH2, 37° C.
The mark [3] stands for this setting: Table 1, Mca-Pro-Leu-Gly-Leu-Dpa-Ala-Arg-NH2, 25° C.

Structures are written as SMILES. Counter-ions that a name gives are not always drawn.

A word on the Ki: it is the equilibrium dissociation constant of an inhibitor or competing ligand from its target.

T1 sequence (P08254 100-477): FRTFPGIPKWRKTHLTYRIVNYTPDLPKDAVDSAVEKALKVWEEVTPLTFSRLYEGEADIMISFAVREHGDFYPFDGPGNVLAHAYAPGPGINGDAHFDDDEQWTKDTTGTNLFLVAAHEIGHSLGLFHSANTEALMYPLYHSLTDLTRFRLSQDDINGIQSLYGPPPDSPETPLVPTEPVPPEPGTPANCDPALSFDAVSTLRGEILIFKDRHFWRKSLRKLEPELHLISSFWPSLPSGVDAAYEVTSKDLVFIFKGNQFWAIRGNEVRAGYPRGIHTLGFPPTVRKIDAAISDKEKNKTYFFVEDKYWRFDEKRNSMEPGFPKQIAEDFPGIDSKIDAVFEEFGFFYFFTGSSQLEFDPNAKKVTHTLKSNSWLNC
T2 sequence (P39900 106-263 limits assumed): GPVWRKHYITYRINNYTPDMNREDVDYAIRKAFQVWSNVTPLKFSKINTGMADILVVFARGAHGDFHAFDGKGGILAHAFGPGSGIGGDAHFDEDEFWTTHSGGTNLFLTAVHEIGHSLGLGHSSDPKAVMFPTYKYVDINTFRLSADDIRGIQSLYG

For `CC(C)C[C@H](NC(=O)[C@@H](S)C(C)C)C(=O)N[C@@H](Cc1ccccc1)C(=O)O` [Example 3, (S)-2-Mercapto-3-methylbutyroyl-(L)-leucyl-(L)-phenylalanine], the values for the inhibition constant (Ki) (at MMP-3 (Stromelysin-1) (setting [2]); in test [1] (setting [3])) were 1410 nM and 14 nM, respectively.

As to `CSCC[C@H](NC(=O)[C@@H](S)C(C)C)C(=O)N[C@@H](Cc1ccccc1)C(=O)O` [Example 4, (S)-2-Mercapto-3-methylbutyroyl-(L)-methionyl-(L)-phenylalanine], the Ki at MMP-3 (Stromelysin-1) (setting [2]) was determined as 449 nM; in test [1] (setting [3]), 14 nM.

On to `CC(C)[C@H](S)C(=O)N[C@@H](CCCCN)C(=O)N[C@@H](Cc1ccccc1)C(=O)O` [Example 5, (S)-2-Mercapto-3-methylbutyroyl-(L)-lysyl-(L)-phenylalanine trifluoroacetic acid salt], for which the Ki on MMP-3 (Stromelysin-1) (setting [2]) came out at 1550 nM; in test [1] (setting [3]), 151 nM.

Regarding `CNC(=O)[C@H](Cc1ccccc1)NC(=O)[C@H](CCc1ccccc1)NC(=O)C(S)C(C)C` (stereo partly drawn) [Example 7, (S)-2-Mercapto-3-methylbutyroyl-(L)-homo-phenylalanyl-(L)-phenylalanine N-methyl amide, reference compound], the Ki on MMP-3 (Stromelysin-1) (Table 2 (comparative), method of Example C, 37° C.) stood at 10 nM; in test [1] (Table 2 (comparative), method of Example D, 25° C.), 0.6 nM.

The record behind these values is US6352976B1, “Selective inhibitors of MMP-12” (Aventis Pharmaceuticals Inc., priority 1998, dated 2002).
